Here are results for 18 substances from patent US20120214862A1, “MODULATION OF FACTOR 7 EXPRESSION” (ISIS Pharmaceuticals, Inc., priority 2009, published 2012).

In the oligonucleotide strings, read from the 5' end, every base follows the letter of its sugar. An asterisk marks phosphorothioate; unmarked linkages are phosphodiester. Other units and linkages are bracketed, terminal groups are in braces. A string of capitals states the bases alone. e = 2'-O-(2-methoxyethyl) (MOE); [5mC] = 5-methylcytosine; d = 2'-deoxy (DNA)

The subject of the data set is human Factor 7 mRNA. Description: Antisense inhibition of human Factor 7 mRNA in HepB3 cells, lipofectin, 50 nM, real-time RT-PCR. In kind it is cell-based. The settings on record: HepB3 cells; for % Inhibition (human Factor 7 mRNA): 50 nM, ~24 h. An outline of the steps: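 Percent inhibition, untreated cells as reference: derived from RNA collected about 24 hours post-transfection of 4,000-cell wells, with the human RTS 2927 primer probe set and adjustment for total RNA content (RIBOGREEN®).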

[1] abbreviates: Example 1, lipofectin, relative to untreated control cells.
The mark [2] stands for this setting: Example 4, lipofectin, relative to untreated control.
Setting [3] is: lipofectin, 50 nM antisense oligonucleotide, approximately 24 hours, primer probe set RTS 2927, relative to untreated control.

For “407619 (antisense eA*eG*eA*eA*eT*dA*dG*dG*dT*dA*dT*dT*dT*dT*dT*e[5mC]*e[5mC]*eA*e[5mC]*eA) [compound 407619]”, the “% Inhibition (human Factor 7 mRNA)” value under setting [1] is 64%.
With “422276 (antisense eG*eG*dT*dT*dA*d[5mC]*dT*dG*dA*dG*d[5mC]*dG*d[5mC]*dG*dG*eA*eA*eG*eA*eA) [compound 422276]”, under setting [2], the “% Inhibition (human Factor 7 mRNA)” value was determined as 66%.
As for “407963 (antisense eA*eG*eA*eG*e[5mC]*dA*dG*dG*dG*dT*dG*d[5mC]*d[5mC]*dT*dT*eG*eG*eA*eA*eG) [compound 407963]”, under setting [1], the “% Inhibition (human Factor 7 mRNA)” value was determined as 33%.
As to “416471 (antisense eT*eG*eA*eG*e[5mC]*dT*dT*dT*dT*dG*d[5mC]*dA*dG*d[5mC]*d[5mC]*eA*e[5mC]*eT*e[5mC]*eG) [compound 416471]”, the “% Inhibition of human Factor 7 mRNA levels” value under setting [3] was found to be 62%.
For the substance “416517 (antisense eG*eG*eG*eT*eG*d[5mC]*dA*dG*dT*dA*dG*d[5mC]*dA*dG*dA*eT*eG*e[5mC]*eA*eA) [compound 416517]”, the “% Inhibition of human Factor 7 mRNA levels” value under setting [3] was determined as 23%.
With “422122 (antisense eA*eG*e[5mC]*eG*e[5mC]*dG*dG*dA*dA*dG*dA*dA*dG*dG*dG*eA*e[5mC]*eG*eG*eA) [compound 422122]”, the “% Inhibition (human Factor 7 mRNA)” value under setting [2] is listed as 24%.
For the substance “416568 (antisense e[5mC]*eA*eT*eT*eG*dT*dG*d[5mC]*d[5mC]*dT*dG*dG*d[5mC]*dA*d[5mC]*eA*e[5mC]*eA*eG*eG) [compound 416568]”, the “% Inhibition of human Factor 7 mRNA levels” value under setting [3] came to 14%.
On to “422133 (antisense eA*eG*e[5mC]*eA*eG*d[5mC]*d[5mC]*dT*dG*dA*dG*dG*d[5mC]*d[5mC]*dA*eG*e[5mC]*eA*eG*eA) [compound 422133]”, for which the “% Inhibition of human Factor 7 mRNA levels” value (gapmers targeted to nucleobases 14707 to 14732 of SEQ ID NO: 1 (Table 11)) is given as 65%.
Regarding “422243 (antisense eA*eG*dG*dA*dG*dA*d[5mC]*dA*dA*dT*dG*dG*dT*d[5mC]*dA*eG*eG*eG*e[5mC]*eT) [compound 422243]”, the “% Inhibition of human Factor 7 mRNA levels” value (gapmers targeted to nucleobases 11830 to 11869 of SEQ ID NO: 1 (Table 9)) is 62%.
With “416441 (antisense eA*eG*eA*eT*eA*dT*dA*dG*dG*dA*d[5mC]*dT*dG*dG*dA*eG*e[5mC]*eT*eG*eG) [compound 416441]”, under setting [3], the “% Inhibition of human Factor 7 mRNA levels” value amounted to 32%.
Still for that read-out and setting: for “416552 (antisense eT*e[5mC]*eT*eG*e[5mC]*dA*d[5mC]*dA*dG*dG*dG*dT*dA*dG*dA*e[5mC]*e[5mC]*e[5mC]*eT*e[5mC]) [compound 416552]” the value was 46%; for “416516 (antisense eG*eT*eG*eA*eG*dA*dA*dT*dA*d[5mC]*dA*dA*d[5mC]*dA*dG*eA*eT*eG*eA*eG) [compound 416516]”, 24%.
As for “407902 (antisense e[5mC]*eA*e[5mC]*e[5mC]*e[5mC]*dA*dG*dA*dT*dG*dG*dT*dG*dT*dT*eG*eA*eT*e[5mC]*eA) [compound 407902]”, under setting [1], the “% Inhibition (human Factor 7 mRNA)” value was found to be 86%.
As for “422153 (antisense e[5mC]*eA*eT*dG*d[5mC]*dA*dT*dG*dG*dT*dG*dA*dT*dG*d[5mC]*dT*dT*e[5mC]*eT*eG) [compound 422153]”, the “% Inhibition of human Factor 7 mRNA levels” value (gapmers targeted to nucleobases 15188 to 15211 of SEQ ID NO: 1 (Table 13)) is 67%.
For the substance “407930 (antisense e[5mC]*eA*eA*eT*eG*dA*dA*dG*dG*d[5mC]*dA*dG*dA*dG*d[5mC]*eA*eG*e[5mC]*eA*eG) [compound 407930]”, under setting [1], the “% Inhibition (human Factor 7 mRNA)” value was found to be 70%.
Take “416453 (antisense eG*eA*eT*eT*eT*dT*dG*dT*d[5mC]*dG*dA*dA*dA*d[5mC]*dA*eG*eT*eG*eG*eG) [compound 416453]”: the “% Inhibition of human Factor 7 mRNA levels” value under setting [3] is listed as 45%.
With “407604 (antisense e[5mC]*eA*e[5mC]*eA*e[5mC]*dT*dG*dG*dT*d[5mC]*d[5mC]*d[5mC]*d[5mC]*dA*dT*e[5mC]*eA*e[5mC]*eT*eG) [compound 407604]”, the “% Inhibition (human Factor 7 mRNA)” value under setting [1] turned out to be 34%.
In the case of “422121 (antisense eG*e[5mC]*eG*e[5mC]*eG*dG*dA*dA*dG*dA*dA*dG*dG*dG*dA*e[5mC]*eG*eG*eA*eA) [compound 422121]”, the “% Inhibition (human Factor 7 mRNA)” value under setting [2] was 43%.
